Measurements published in patent US20100048498A1, “STABLE NON-DIHYDRATE AZITHROMYCIN ORAL SUSPENSIONS” (priority 2004, published 2010).

Experiments:
Assay type in all cases: physicochemical
[1] = Effects of flavoring components upon azithromycin form F conversion in constituted POS; conditions: room temperature
From the text: POS formulation II was constituted with water and stored identically to serve as a control for this experiment.

[2] = Effect of cyclodextrins on non-dihydrate azithromycin form conversion in constituted POS formulation II; conditions: for % Form A: 18 mls water
Experimental: The effect of adding a complexing agent such as cyclodextrin on the stability of non-dihydrate azithromycin forms G, M and F against conversion in a constituted POS formulation were evaluated.
Forms G, M and F of azithromycin were formulated into POS formulation II. Various cyclodextrins were added to the POS formulation II and the resulting samples were constituted with 18 mls of water. The suspensions were then stored for 24 hours at room temperature. At the end of the storage time, the suspensions were filtered and the recovered solids were weighed and analyzed by SS-NMR to quantify the presence of azithromycin dihydrate (form A). The control samples were formulated into formulation II with non-dihydrate azithromycin form G, M and F without cyclodextrins and were constituted with water, stored, filtered and analyzed identically to the cyclodextrin samples described above. A control, which had no cyclodextrin was run with each series of experiments. The SS-NMR data are presented in Tables 10, 11, 12 and the results are given as weight percent (% wt), of the recovered azithromycin sample.

[3] = Stability of non-dihydrate azithromycin in suspension (POS formulation II or bulk drug in water); SS-NMR quantification of form A
Experimental: The stability of various forms of non-dihydrate azithromycin, in water and in flavored oral suspensions, was evaluated. Specifically, non-dihydrate azithromycin forms G, M, N, F and J were separately used in POS formulation II. These POS formulations were constituted by mixing with 18 mls of water. The suspensions were then stored for 1, 5 and 10 days at either 5° C. or 30° C. Suspensions of bulk azithromycin forms G, M, N, F and J were also constituted with 18 mls of water and stored under the same conditions.
Upon conclusion of the storage time period the suspensions were filtered and suspended solids collected as described previously.

[4] = POS Formulation II + Hydroxypropyl β-cyclodextrin 11.1 % w/w, 24 hours room temperature (Tables 11, 12)
[5] = POS Formulation II, no cyclodextrin (Control), 24 hours room temperature (Tables 11, 12)
[6] = Bulk Drug in 18 mls water, 5° C., Day 1
[7] = Bulk Drug in 18 mls water, 5° C., Day 10
[8] = Bulk Drug in 18 mls water, 30° C., Day 1
[9] = Bulk Drug in 18 mls water, 30° C., Day 10
[10] = Formulation II constituted with 18 mls water, 5° C., Day 1
[11] = Formulation II constituted with 18 mls water, 5° C., Day 10
[12] = Formulation II constituted with 18 mls water, 30° C., Day 1
[13] = Formulation II constituted with 18 mls water, 30° C., Day 10

% Form A [2, 4] | % Form A [2, 5] | % A (azithromycin dihydrate, form A, of recovered azithromycin) [3, 6] | % A (azithromycin dihydrate, form A, of recovered azithromycin) [3, 7] | % A (azithromycin dihydrate, form A, of recovered azithromycin) [3, 8] | % A (azithromycin dihydrate, form A, of recovered azithromycin) [3, 9] | % A (azithromycin dihydrate, form A, of recovered azithromycin) [3, 10] | % A (azithromycin dihydrate, form A, of recovered azithromycin) [3, 11] | % A (azithromycin dihydrate, form A, of recovered azithromycin) [3, 12] | % A (azithromycin dihydrate, form A, of recovered azithromycin) [3, 13] | Compound | further results
0.0% | 74.6% | 0% | 0% | 0% | 0% | 6% | 27% | 19% | 31% | CCC1OC(=O)C(C)C(O[C@H]2C[C@@](C)(OC)[C@@H](O)C(C)O2)C(C)[C@@H](OC2OC(C)CC(N(C)C)[C@H]2O)[C@@](C)(O)C[C@@H](C)CN(C)[C@H](C)[C@@H](O)[C@]1(C)O (some centres unmarked) [Form F, azithromycin monohydrate hemi-ethanol solvate] | % F (SS-NMR Evaluation after 24 hrs constitution) ([1]; Formulation I constituted with 18 mL 0.0577 mg/ml benzaldehyde): 0%; % F (SS-NMR Evaluation after 24 hrs constitution) ([1]; Formulation I constituted with 18 mL 0.922 mg/ml 3-methyl-butyl acetate + 0.0577 mg/ml benzaldehyde): 0%; % F (SS-NMR Evaluation after 24 hrs constitution) ([1]; Formulation I constituted with 18 mL 0.922 mg/ml 3-methyl-butyl acetate): 0%; % F (SS-NMR Evaluation after 24 hrs constitution) ([1]; Formulation I constituted with 18 mL 1.666 mg/ml 3-methyl-butyl acetate): 0%; % F (SS-NMR Evaluation after 24 hrs constitution) ([1]; Formulation II constituted with 18 mL Water): 0%; % Form A ([2]; POS Formulation II + Sulfobutylether β-cyclodextrin 11.1 % w/w, 24 hours room temperature (Table 11)): 0.0%; % Form A ([2]; POS Formulation II + α-cyclodextrin 1.2 % w/w, 24 hours room temperature (Table 11)): 0.0%; conversion to form A ([2]; POS Formulation II when cyclodextrins were present, 24 hours room temperature): no conversion
0.0% | 71.6% | 0% | 0% | 0% | 0% | 23% | 40% | 28% | 62% | CCC1OC(=O)C(C)C(O[C@H]2C[C@@](C)(OC)[C@@H](O)C(C)O2)C(C)[C@@H](OC2OC(C)CC(N(C)C)[C@H]2O)[C@@](C)(O)C[C@@H](C)CN(C)[C@H](C)[C@@H](O)[C@]1(C)O (some centres unmarked) [Form M, azithromycin monohydrate hemi-isopropanol solvate] | % Form A ([2]; POS Formulation II + Hydroxypropyl β-cyclodextrin 11.1 % w/w, 24 hours room temperature (Tables 11, 12), listed as form M): no conversion; % Form A ([2]; POS Formulation II + β-cyclodextrin 1.2 % w/w, 24 hours room temperature (Table 12)): 0.9%; % Form A ([2]; POS Formulation II + β-cyclodextrin 1.2 % w/w, 24 hours room temperature (Table 12), listed as form M): very small amount of conversion; % Form A ([2]; POS Formulation II + γ-cyclodextrin 1.2 % w/w, 24 hours room temperature (Table 12)): 29.9%; % A (azithromycin dihydrate, form A, of recovered azithromycin) ([3]; Bulk Drug in 18 mls water, 5° C., Day 5): 0%; % A (azithromycin dihydrate, form A, of recovered azithromycin) ([3]; Bulk Drug in 18 mls water, 30° C., Day 5): 0%; % A (azithromycin dihydrate, form A, of recovered azithromycin) ([3]; Formulation II constituted with 18 mls water, 5° C., Day 5): 38%; % A (azithromycin dihydrate, form A, of recovered azithromycin) ([3]; Formulation II constituted with 18 mls water, 30° C., Day 5): 36%
– | – | 0% | 0% | 0% | 0% | 0% | 0% | 0% | 0% | CCC1OC(=O)C(C)C(O[C@H]2C[C@@](C)(OC)[C@@H](O)C(C)O2)C(C)[C@@H](OC2OC(C)CC(N(C)C)[C@H]2O)[C@@](C)(O)C[C@@H](C)CN(C)[C@H](C)[C@@H](O)[C@]1(C)O (some centres unmarked) [Form J, azithromycin monohydrate hemi-n-propanol solvate] | –
